# Assay results from PMC9820345, “Metal Complexes of a 5-Nitro-8-Hydroxyquinoline-Proline Hybrid with Enhanced Water Solubility Targeting Multidrug Resistant Cancer Cells” (International Journal of Molecular Sciences, 2022).
# Read-outs that look alike come from different tables or passages of the source.
# What was measured:
# [1] = cited from earlier work
# [2] = pH 7.4, cited from earlier work
# [3] = Proton dissociation constants (pKa) of the ligand by pH-potentiometric, UV-vis and 1H NMR titrations; format: physicochemical; settings: pH 7.4
# Method: Characterization of the protonation/deprotonation equilibrium processes of a bioactive molecule is important to reveal its actual chemical form and charge at a given pH. The proton dissociation constant (Ka) is a key physico-chemical parameter since it has an impact on many biopharmaceutical characteristics such as lipophilicity, water solubility, and albumin binding, which in turn directly influences pharmacokinetics. The pKa values of the protonated HQNO2-L-Pro were determined by pH-potentiometric, UV-vis (Figure 1a), and ^1H NMR spectroscopic titrations (Table 1).
# The pH-potentiometric measurements were carried out at 25.0 ± 0.1 °C in water in the pH range between 2.0 and 11.5 at a constant ionic strength of 0.2 M KNO3. The titrations were performed in a carbonate-free KOH solution (0.20 or 0.10 M). The exact concentrations of HNO3, HCl, and KOH solutions were always determined by pH-potentiometric titrations. An Orion 710A pH-meter equipped with a Metrohm combined electrode (type 6.0234.100) and a Metrohm 665 Dosimat burette were used for the measurements. […] The average water ionization constant (pKw) was determined as 13.76 ± 0.01, which is in good agreement with the literature data. In the case of the titrations in 30% (v/v) DMSO/H2O, the calibration of the pH-potentiometric system was conducted as in our former works. Samples were degassed by bubbling purified argon through them for about 10 min prior to the measurements, and the inert gas was also passed over the solutions during the titrations. Stoichiometry of the species and their equilibrium constants were obtained similarly to that performed in our previous works, with the use of computer program Hyperquad2013 [50].
# An Agilent Cary 8454 diode array spectrophotometer (Santa Clara, CA, USA) was used to obtain UV-vis spectra in the wavelength range 200–1000 nm, while spectra were recorded for the Fe(II)-containing samples using an Avantes (Avantes B.V., Apeldoorn, The Nederlands) AvaSpec-ULS2048CL-EVO spectrometer with an AvaLight-DHc light source and FDP-7UVIR200-2-VAR transmission dip probe. The titrations for the Fe(II)-containing samples were performed in a laboratory glove box (GP(Campus), Jacomex) (O2 content ≤ 1 ppm). The path length (ℓ) was 1 cm in most cases (the actual ℓ is always indicated in the legends of the figures). The concentrations of the ligands and complexes were between 40 and 200 µM, and 0.2 M KNO3 for the organometallic complexes or 0.1 M KCl for the Fe(II/III), Cu(II), and Zn(II) complexes were used to adjust the constant ionic strength. For HSA containing samples, complex concentrations were 50 µM, and 0.5, and 2 equiv. biomolecules were added for kinetic studies, respectively. For HSA model containing samples, complex concentrations were 50 µM, and the model concentrations were 0–150 µM and 0–500 µM, respectively, and the pH was 7.4 (PBS’). Spectra were always background and baseline corrected. The computer program HypSpec was used to obtain stability constants. Hydrolysis constants of the Fe(III), Fe(II), RuCym, and RhCp* species were included in the speciation models (see Table S4 with the data taken from References).
# The Bruker Avance III HD Ascend 500 Plus instrument (Billerica, MA, USA) was used for NMR studies. ^1H NMR spectroscopic measurements were carried out with a WATERGATE water suppression pulse scheme in the presence of 10% (v/v) D2O/H2O in most cases. DSS internal standard was added to samples to obtain reference peaks. ^1H NMR titrations were carried out for the ligand alone, and for the organometallic complexes in the presence of 0.2 M KNO3. With the AHA and FHA model peptides, the measurements were performed at pH 7.4 (PBS’) at 0.5 or 1 mM metal complex concentrations, and 1:1, 1:2 or 2:1 peptide-to-metal complex ratios were applied. NMR titrations were also performed for the Zn(II)-ligand systems using 0.1 M KCl ionic strength. […]
# [4] = Aqueous solubility at physiological pH (S7.4); format: physicochemical; settings: pH 7.4
# [5] = tested on: MES-SA; experiment: In vitro cytotoxicity, MES-SA cells (fluorescent protein readout); format: cell-based, human; settings: 144 h exposure
# Text: (§1) Cell lines: all cell culture reagents were obtained from Sigma-Aldrich; plasticware was purchased from Sarstedt (Nümbrecht, Germany); Human colon Colo205 (chemo-sensitive, ATCC-CCL-222) and Colo320 (Pgp/MDR1-expressing, doxorubicin-resistant, ATCC-CCL-220.1) adenocarcinoma cell lines were purchased from LGC Promochem, Teddington, UK; MES-SA and MES-SA/Dx5 uterine sarcoma cell lines were obtained from ATCC, where they were characterized by DNA fingerprinting. The expression of the Pgp efflux pump of MES-SA/Dx5 was proven by Western blot analysis in our former report, and was also reported for the Colo320 cells. The MES-SA and MES-SA/Dx5 cells used in this study were previously engineered to express the fluorescent proteins mCherry and eGFP, respectively, by lentiviral transduction.
# (§2) MES-SA cell lines were maintained in DMEM, supplemented with 10% fetal bovine serum, 5 mmol/L glutamine, and 50 units/mL penicillin and streptomycin. Cells were tested and resulted negative for mycoplasma contamination with the MycoAlert mycoplasma detection Kit (Lonza Group, Basel, Switzerland). One week prior to the cytotoxicity assays, Dx5 eGFP cells were selected in 500 nM doxorubicin for one passage to ensure the overexpression of P-glycoprotein.
# (§3) Cytotoxicity assays: The tested compounds were dissolved in PBS buffer to prepare 5 mM stock solutions, which were diluted in complete culture medium.
# (§4) In the case of the MES-SA and MES-SA/Dx5 cells, cell suspensions of the fluorescent cell lines were pre-mixed in a 1:1 ratio and seeded in 20 µL medium in a density of 2500 cells/well (1250 cells/well each) in a 384-well plate. After an overnight incubation, a serial dilution of the compounds was added to the plate in a final volume of 60 µL. The P-gp inhibitor tariquidar was added to the cells 15 min prior to the test compounds. After 144 h of incubation, plates were measured for the fluorescent intensity of mCherry (EX/EM: 585 nm/610 nm) and eGFP (EX/EM: 485 nm/510 nm). Cell seeding, aspiration of medium, and addition of drugs were performed by a Hamilton StarLet automated liquid handling robot.
# (§5) Inhibition of the cell growth (expressed as IC50: inhibitory concentration that reduces by 50% the growth of the cells exposed to the tested compounds) was determined from the sigmoid curve where 100 − ((ODsample − ODmedium control)/(ODcell control − ODmedium control)) × 100 values were plotted against the logarithm of compound concentrations. Curves for the data obtained on Colo205 and Colo320 cells were fitted by GraphPad Prism software (2021, Graphpad Software, version 7.00, San Diego, CA, USA) using the sigmoidal dose–response model (comparing variable and fixed slopes). From the MES-SA cell data, the IC50 values were calculated by our custom program, written by J. Sessler in C#. The p values were calculated by Student’s t-test. The IC50 values were always obtained from at least three independent experiments.
# [6] = tested on: MES-SA/Dx5; experiment: In vitro cytotoxicity, MES-SA/Dx5 cells (fluorescent protein readout); format: cell-based, human
# Text: as §1, §2, §3, §4, §5
# [7] = set-up: method as in PMID 32500882; settings: cited from earlier work
# [8] = set-up: method as in earlier work; settings: pH 7.40, cited from earlier work
# [9] = tested on: Colo205; set-up: method as in PMID 32500882; settings: 72 h exposure; cited from earlier work
# [10] = tested on: Colo320; set-up: method as in PMID 32500882; settings: cited from earlier work; for IC50: 72 h exposure; for Selectivity ratio IC50 (Colo205)/IC50 (Colo320): calculated from IC50 values taken from ref 12
# [11] = target: T1, HSA site I (Trp-214) (Homo sapiens, UniProt P02768); set-up: method as in PMID 32500882; settings: cited from earlier work
# T1 construct: purchased Sigma-Aldrich (Darmstadt, Germany) A8763
# [12] = target: T2, HSA site II (Homo sapiens, UniProt P02768); set-up: method as in PMID 32500882; settings: cited from earlier work
# T2 construct: purchased Sigma-Aldrich (Darmstadt, Germany) A8763
# T2 sequence (P02768 25-609): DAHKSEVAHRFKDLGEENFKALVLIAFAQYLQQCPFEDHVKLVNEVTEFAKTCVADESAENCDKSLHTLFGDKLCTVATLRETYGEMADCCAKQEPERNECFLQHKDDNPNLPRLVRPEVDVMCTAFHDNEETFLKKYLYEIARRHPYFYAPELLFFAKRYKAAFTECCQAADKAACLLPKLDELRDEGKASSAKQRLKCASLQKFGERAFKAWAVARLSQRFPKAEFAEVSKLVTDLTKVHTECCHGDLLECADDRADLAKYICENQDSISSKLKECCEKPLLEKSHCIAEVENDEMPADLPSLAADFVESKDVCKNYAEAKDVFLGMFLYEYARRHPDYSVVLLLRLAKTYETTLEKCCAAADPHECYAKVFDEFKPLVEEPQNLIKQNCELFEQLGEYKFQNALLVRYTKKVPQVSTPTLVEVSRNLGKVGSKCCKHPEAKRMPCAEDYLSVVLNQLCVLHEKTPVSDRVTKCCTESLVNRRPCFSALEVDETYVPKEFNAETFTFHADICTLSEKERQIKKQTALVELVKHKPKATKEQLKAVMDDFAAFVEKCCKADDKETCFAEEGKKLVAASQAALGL
# T1 sequence (P02768 25-609): as above
structure (smiles),measurement,setting,value
Oc1c(CN2CCCCC2)ccc2cccnc12 [7-(piperidin-1-ylmethyl)quinolin-8-ol],formal potential E'1/2 of the iron complexes,[1],+21 mV vs. NHE
Oc1cccc2cccnc12 [8-hydroxyquinoline],formal potential E'1/2 of the iron complexes,[1],−323 mV vs. NHE
Cc1c(C)c(C)[c-](C)c1C.[Cl][Rh]1[O]c2cccc3ccc[n+]1c23 [RhCp*-HQ],conditional stability constant logK',[2]; calculated based on ref 23,12.76
"O=C(O)[C@@H]1CCCN1Cc1cc(Cl)c2cccnc2c1O [HQCl-L-Pro, reference compound]",fraction of negatively charged form,[3],36.5%
same,fraction of neutral form,[3],63.5%
same,solubility in water at physiological pH (S7.4),[4],> 10 mM
same,IC50,[5],23 ± 4 µM
same,IC50,[6]; 144 h exposure,4.3 ± 0.1 µM
same,Selectivity ratio IC50 (MES-SA)/IC50 (MES-SA/Dx5),[6]; calculated from IC50 values in Table 4,5.41
same,pKa (NProH+),[7],> 11.5
same,pKa (OH),[7],7.76
same,log D7.4,[8]; 4 mM chloride,+0.13 ± 0.09
same,IC50,[9],23 ± 3 µM
same,IC50,[10],9 ± 2 µM
same,Selectivity ratio IC50 (Colo205)/IC50 (Colo320),[10],2.75
Cc1c(C)c(C)[c-](C)c1C.O=C(O)[C@@H]1CCC[NH+]1Cc1cc(Cl)c2ccc[n+]3c2c1[O][Rh]3[Cl].[Cl-] [RhCp*-HQCl-L-Pro],log D7.4,[8]; 100 mM chloride,+0.10 ± 0.01
same,conditional stability constant logK',[2]; calculated based on ref 12,12.98
same,quenching constant logKQ',[11],5.5
same,DG marker displacement constant logKDG',[12],5.6
same,IC50,[9],26 ± 5 µM
same,IC50,[10],10 ± 1 µM
same,Selectivity ratio IC50 (Colo205)/IC50 (Colo320),[10],2.66
